Structures are written as SMILES. Entries after “also recorded” stand apart in the source; their conditions may differ.

Series [1] has as its system C. trachomatis. Put plainly: Number, size and development of chlamydial inclusions in HeLa cells (confocal microscopy, ImageJ). Format: cell-based, Chlamydia trachomatis strain D. The settings on record: for Inclusion size / Number of inclusions: C. trachomatis 24 h; for Inclusion development: total infection 24 h. The method, then:
Propagation of Chlamydia and infections. Chlamydia trachomatis strain D (C. trachomatis) was propagated in HeLa cells grown in complete DMEM containing cyclohexamide (2 μg/ml). After 48 h, infected cells were harvested in sucrose-phosphate-glutamate (SPG) buffer, ruptured by vortexing with 3 mm glass beads. EBs were purified using previously described methods. The resulting bacterial pellet was resuspended in cold SPG buffer with a 21 to 22-gauge injection needle and stored in aliquots at −80° C. For infection, chlamydial EBs were added to cells in monolayer (80% confluence) at a multiplicity of infection (MOI) of 2-10 for all studies included here. Centrifugation was not used during the infection.
siRNA transfections. […] After 24 h, transfected cells were replated for a second round of transfection. After another 24 h, cells were infected with C. trachomatis and incubated for different time intervals (siRNA was maintained during the infection) according to the experimental design and were either stained for analyzing the inclusion development or prepared for Western blot analysis.
(§1) EGFR inhibitor treatment. […] The cells were pretreated with Erlotinib (25 μM) for 2 h and then infected with C. trachomatis. […] The inhibitor concentration was maintained during the infection. In certain experiments in which protein phosphorylation was investigated (FIG. 1, Panels B, D, F and G, FIG. 2, FIG. 3 and FIG. 11) the cells were serum starved overnight before drug treatment and C. trachomatis infection. […] Infected samples were used either for Western blotting or confocal imaging as described below. In another set of experiments the cells were infected with C. trachomatis followed by addition of Erlotinib at 2.5, 5 and 18 hpi. The total time for C. trachomatis infection was 24 h after which the samples were used for Western blotting or confocal imaging.
Immunofluorescence. Cells were infected with C. trachomatis as described above. The cells were washed 5 times with PBS and fixed at either 2.5 hpi or 24 hpi with 4% PFA for 10 min and blocked with 5% BSA for 1 h. After washing with TBS (50 mM Tris HCl, pH 7.4 and 150 mM NaCl) the cells were permeabilized for 15 min with 0.1% Triton X-100 and again washed with TBS followed by incubation with the indicated primary antibodies overnight. […] After repeated washings, the coverslips were mounted and analyzed using Zeiss LSM 510 or 710 laser scanning confocal microscope. For the studies shown in FIG. 1, Panel A, C. trachomatis inclusions were stained using the Pathfinder Chlamydia Culture Confirmation System (BioRad, Hercules, Calif., USA). At 24 h post C. trachomatis infection, cells were fixed with methanol for 10 min at room temperature and stained with the FITC conjugated pathfinder anti-chlamydial mAb according to the manufacturer's protocol (Bio-Rad, Hercules, Calif.). For the co-localization studies, 30,000 HeLa cells were seeded into EZ slide 4-well glass slides (Millipore, Temecula, Calif., USA) and infected with C. trachomatis as described above for 2.5 h the next day. Cells were fixed 24 h later in 4% formaldehyde in PBS for 15 min, permeabilized in 0.1% Triton X-100 for 10 min, and blocked in 1% BSA for 1 h at room temperature. […] The slides were mounted with Fluoromount mounting medium (Sigma Aldrich, St. Louis, Mo., USA), sealed, and examined using Zeiss 710 laser scanning confocal microscope.
BAPTA/AM and Ionomycin treatment. Monolayers of HeLa cells were washed with PBS and replaced with calcium free DMEM+1% FBS and pretreated for 1 h with BAPTA/AM (15 μM) followed by C. trachomatis infection for 24 h. BAPTA/AM concentration was maintained during the C. trachomatis infection. The control cells were treated with DMSO (<0.1%) followed by 24 h of C. trachomatis infection. In another set of experiments, HeLa cells were infected with C. trachomatis followed by addition of BAPTA/AM (15 μM) or DMSO at 2 or 5 hpi. The total time for C. trachomatis infection was 24 h.

In the next series the test system is F-actin. Put plainly: Organization of F-actin at the chlamydial inclusion periphery (confocal microscopy). The settings on record: C. trachomatis 24 h. It counts as cell-based, human. The procedure:
Immunofluorescence. Cells were infected with C. trachomatis as described above. The cells were washed 5 times with PBS and fixed at either 2.5 hpi or 24 hpi with 4% PFA for 10 min and blocked with 5% BSA for 1 h. After washing with TBS (50 mM Tris HCl, pH 7.4 and 150 mM NaCl) the cells were permeabilized for 15 min with 0.1% Triton X-100 and again washed with TBS followed by incubation with the indicated primary antibodies overnight. […] After repeated washings, the coverslips were mounted and analyzed using Zeiss LSM 510 or 710 laser scanning confocal microscope. For the studies shown in FIG. 1, Panel A, C. trachomatis inclusions were stained using the Pathfinder Chlamydia Culture Confirmation System (BioRad, Hercules, Calif., USA). At 24 h post C. trachomatis infection, cells were fixed with methanol for 10 min at room temperature and stained with the FITC conjugated pathfinder anti-chlamydial mAb according to the manufacturer's protocol (Bio-Rad, Hercules, Calif.). For the co-localization studies, 30,000 HeLa cells were seeded into EZ slide 4-well glass slides (Millipore, Temecula, Calif., USA) and infected with C. trachomatis as described above for 2.5 h the next day. Cells were fixed 24 h later in 4% formaldehyde in PBS for 15 min, permeabilized in 0.1% Triton X-100 for 10 min, and blocked in 1% BSA for 1 h at room temperature. […]

In series [2] the test system is EGFR, PLCγ1, STAT5 and Akt. Put plainly: Western blot of C. trachomatis-induced phosphorylation of EGFR and downstream effectors in HeLa cells. The settings on record: 25 μM Erlotinib for 2 h followed by Ct infection for 2.5 h. It counts as cell-based, human. The procedure: (§2) Immunoblotting. Cells were harvested and lysed in modified RIPA buffer (50 mM Tris, 150 mM NaCl, 1% sodium deoxycholate, 1% NP-40, 1 mM sodium fluoride) supplemented with protease inhibitor cocktail and phosphatase inhibitor tablet (Roche). For Western blotting of C. trachomatis antigens, the C. trachomatis-infected cells were lysed in 20 mM HEPES buffer (pH 8.0) containing 8 M urea supplemented with protease inhibitors. Cell lysates were incubated on ice for 1 h and then sonicated briefly. The soluble protein fraction was collected by centrifugation at 10,000 rpm. Total protein was estimated using the BCA method and equal amounts of proteins (10-20 μg) were processed for immunoblotting. Proteins were resolved on 10% SDS polyacrylamide gel and transferred onto a nitrocellulose membrane. The blot was blocked using 3% BSA and incubated with the indicated antibodies. ECL was used to detect the proteins according to the manufacturer's instructions.
EGFR inhibitor treatment. […] The cells were pretreated with Erlotinib (25 μM) for 2 h and then infected with C. trachomatis. […] The inhibitor concentration was maintained during the infection. In certain experiments in which protein phosphorylation was investigated (FIG. 1, Panels B, D, F and G, FIG. 2, FIG. 3 and FIG. 11) the cells were serum starved overnight before drug treatment and C. trachomatis infection. […]

For series [3], the system named is C. trachomatis. Description: Inside out staining: chlamydial attachment and entry into the host cell. Format: cell-based, Chlamydia trachomatis strain D. The settings on record: HeLa cells, C. trachomatis 2.5 h.
Method: Inside out staining. Differential staining of external and internalized bacteria was performed as described previously and using three independent studies. Briefly, cells were grown overnight in 2-well Lab-Tek chamber slides and treated with either EGFR inhibitors or siRNA as described above and subsequently infected with Chlamydia for 2.5 h at 37° C. to allow for bacterial attachment and internalization. […] Infected cells were washed five times in PBS and fixed in 1% paraformaldehyde (PFA). After fixation, cells were blocked in 5% BSA for 1 h and then incubated with FITC-conjugated antibody against chlamydial EBs for 1 h to stain external EBs. Cells were then permeabilized with 0.1% Triton X-100, blocked again, and incubated with antibody against chlamydial LPS followed by incubation with rhodamine-conjugated anti-goat antibody to stain intracellular and extracellular EBs. Imaging was performed using confocal microscopy (Carl Zeiss, Germany). The quantification for the inside out experiments was performed manually based on the number of attached EBs observed per infected cell. The statistical analysis was based on imaging data collected from fifteen fields containing 3-10 cells per field as described below.
Similarly, fifteen random fields (3-10 cells per field) were used for the inside out experiments. All results are presented as mean±SEM. […]
The subject of the next series is chlamydial Hsp60. Put plainly: Western blot analysis of chlamydial Hsp60 in infected HeLa cells. Format: cell-based, Chlamydia trachomatis strain D. The method, then:
as §2, §1

A further series concerns chlamydial EBs. Put plainly: Control experiment: viability of elementary bodies (EBs) treated with Erlotinib and Cetuximab (Hsp60 Western blot). Format: cell-based, Chlamydia trachomatis strain D. The settings on record: EBs with Erlotinib 25 μM or Cetuximab 20 μg/ml for 2.5 h, HeLa infection 24 h. The source says: Control experiments. […] EB pellets were washed and resuspended in SPG buffer and used for subsequent HeLa cell infection. At 24 hpi cells were lysed for Western blotting of chlamydial Hsp60 antigen.

In another series the test system is HeLa cells. Description: Cell viability assay (MTT). Format: cell-based, human. The settings on record: 25 μM Erlotinib for 24 h.
The subject of series [4] is C. trachomatis. Put plainly: Transmission electron microscopy of HeLa cells infected with C. trachomatis. The settings on record: C. trachomatis 24 h, vs respective controls. It counts as cell-based, Chlamydia trachomatis strain D. The procedure: Transmission electron microscopy. HeLa cells were infected with C. trachomatis as described above. […] The cells were then washed and post-fixed for 1 h in 1% osmic acid in 0.1 N Millonig's buffer followed by 1 h treatment with 1% uranyl acetate. […] Thin sections were then cut with a Reichert ultracut E microtome and stained with 1% uranyl acetate and Reynold's lead citrate solutions, followed by the analysis using 80 kV Tecnai Spirit BioTwin transmission electron microscope.

The subject of a further series is intracellular calcium. Put plainly: Intracellular calcium staining (fluorescence microscopy) in HeLa cells. It counts as cell-based, human. The method, then: Intracellular calcium staining. Cells were washed with calcium free incomplete DMEM and incubated with 2 μM Fluo-4 AM diluted in Ca^2++ free incomplete DMEM at 37° C. for 30 min. The cells were then washed with Ca^2++ free HBSS and analyzed for calcium levels using an Olympus IX71 fluorescence microscope.
BAPTA/AM and Ionomycin treatment. Monolayers of HeLa cells were washed with PBS and replaced with calcium free DMEM+1% FBS and pretreated for 1 h with BAPTA/AM (15 μM) followed by C. trachomatis infection for 24 h. BAPTA/AM concentration was maintained during the C. trachomatis infection. The control cells were treated with DMSO (<0.1%) followed by 24 h of C. trachomatis infection. In another set of experiments, HeLa cells were infected with C. trachomatis followed by addition of BAPTA/AM (15 μM) or DMSO at 2 or 5 hpi. The total time for C. trachomatis infection was 24 h. To induce mobilization of calcium from intracellular stores to the cytoplasm, cultured cells were pretreated for 1 h with 1 μg/ml Ionomycin before chlamydial infection. C. trachomatis-infected cells were washed three times with PBS after 24 hpi and processed for immunofluorescence as described above.
(Calcium flux is commonly read through the fluorescence of an indicator in the cells.)

Setting [5] is: HeLa cells pre-treated with BAPTA/AM 15 μM for 1 h, calcium free DMEM.
The mark [6] stands for this setting: HeLa cells treated before infection (Erlotinib 25 μM, Cetuximab 20 μg/ml or siRNA), vs DMSO, IgG or control siRNA.

As for `CC(=O)OCOC(=O)CN(CC(=O)OCOC(C)=O)c1ccccc1OCCOc1ccccc1N(CC(=O)OCOC(C)=O)CC(=O)OCOC(C)=O` [BAPTA/AM], in the series with C. trachomatis [1] (setting [5]), the Inclusion size entry is “significant decrease; also recorded: significantly reduced” and the Number of inclusions entry is reported as “significant decrease; also recorded: significantly reduced”. For the same compound, the Inclusion development entry in the series with C. trachomatis [1] (HeLa cells, BAPTA/AM 15 μM added at 2 or 5 hpi, vs DMSO) is on record as “Impaired inclusion formation; also recorded: impaired inclusion development”. In addition, the “Assembly of F-actin at the inclusion periphery” value in the series on F-actin (HeLa cells pre-treated with BAPTA/AM for 1 h) was “diffused assembly of F-actin at the inclusion periphery”.
For the compound `C#Cc1cccc(Nc2ncnc3cc(OCCOC)c(OCCOC)cc23)c1` [Erlotinib], the “EGFR phosphorylation induced by Ct infection” value in series [2] is recorded as “an increase in EGFR phosphorylation upon Ct infection in the absence of Erlotinib but not in the presence of the drug”. In the series with C. trachomatis [1] (setting [6]), the Inclusion size entry is “Significant reduction”. Moreover, the Number of inclusions result in the series on C. trachomatis [1] (setting [6]) is reported as “significantly reduced”. Also, the Inclusion development entry in the series on C. trachomatis [1] (HeLa cells, Erlotinib added at 2.5 hpi) was “impaired regular inclusion formation and resulted in formation of numerous bacterial aggregates; also recorded: incomplete inclusion development and bacterial aggregates”; in the series on C. trachomatis [1] (HeLa cells, Erlotinib added at 5 hpi), “impaired regular inclusion formation and resulted in formation of numerous bacterial aggregates; also recorded: incomplete inclusion development and bacterial aggregates”; in the series with C. trachomatis [1] (HeLa cells, Erlotinib added at 18 hpi) it was “did not significantly affect; also recorded: Well-developed C. trachomatis inclusions”. Further, the “Chlamydial binding to the host cell surface (cell-associated bacteria, external+internalized)” value with C. trachomatis [3] was “Significant reduction”. The “Chlamydial Hsp60 levels” value with chlamydial Hsp60 (HeLa cells treated before infection, C. trachomatis 2.5 h) is “significant (P<0.001) reduction”. Also, in the series on chlamydial Hsp60 (HeLa cells, Erlotinib 25 μM added at 2.5 hpi, total infection 24 h), the “Chlamydial Hsp60” value was “Significantly lower expression; also recorded: Significant decrease”. In the series on chlamydial Hsp60 (HeLa cells, Erlotinib 25 μM followed by Ct infection for 24 h), the “Chlamydial Hsp60 antigen” value was “marked decrease”. Moreover, in the series with chlamydial EBs, the “Chlamydial Hsp60 antigen load in cells infected with drug-treated vs untreated EBs (EB viability)” value is given as “comparable; also recorded: no difference”. Besides, in the series with HeLa cells, the “Viability of HeLa cells” value is “did not reduce the viability; also recorded: did not affect the viability”. Moreover, the “Inclusion morphology by transmission electron microscopy” value in the series on C. trachomatis [4] was “small inclusions; also recorded: smaller and less mature”. Besides, in the series with intracellular calcium (Erlotinib added at 2.5 and 5 hpi, stained at 24 hpi), the “Calcium signal in C. trachomatis-infected cells (Fluo-4 AM)” value is on record as “significant drop in calcium signal; also recorded: weak calcium signal”. The “Assembly of F-actin at the inclusion periphery” value with F-actin (HeLa cells with EGFR inhibition) is “altered”.
As for `C[C@H](CCC(=O)O)C[C@H](C)C[C@H](C)C(=O)/C=C(\O)[C@H](C)C[C@H](C)C/C=C/[C@@H](C)[C@@H](O)[C@@H](C)[C@@H](O)C[C@@H]1CC[C@@](C)([C@H]2CC[C@@](C)([C@@H](C)O)O2)O1` [Ionomycin], the “Inclusion formation in EGFR siRNA treated cells with or without Ionomycin” value with C. trachomatis [1] (HeLa cells, EGFR siRNA, Ionomycin 1 μg/ml 1 h pre-treatment, Ct 24 h) is on record as “not able to rescue; also recorded: no significant difference”. Also, in the series with intracellular calcium (Ionomycin 1 μg/ml for 1 h), the “Intracellular free calcium (Fura-2/AM)” value was “Increased intracellular free calcium”.

Source of the values: patent US10017768B2, “Method of treatment of chlamydial infections with selected EGFR inhibitors” (priority 2013, dated 2018).
